In ChEMBL document CHEMBL5120807, “Recent advances in the development of active hybrid molecules in the treatment of cardiovascular diseases” (Bioorg Med Chem, 2022):

Columns and labels:
[1] = molecular target: Dual specificity protein kinase CLK1 (Mus musculus, UniProt P22518); test: Inhibition of mouse recombinant CLK1 expressed in bacterial system using GRSRSRSRSRSR as substrate incubated for 30 mins by ADP-Glo assay kit method
[2] = molecular target: Serine/threonine-protein kinase pim-1 (Homo sapiens, UniProt P11309); test: Inhibition of human PIM1 expressed in bacterial system using histone H1 as substrate incubated for 30 mins by ADP-Glo assay kit method
Serine/threonine-protein kinase pim-1, sequence (P11309 whole entry): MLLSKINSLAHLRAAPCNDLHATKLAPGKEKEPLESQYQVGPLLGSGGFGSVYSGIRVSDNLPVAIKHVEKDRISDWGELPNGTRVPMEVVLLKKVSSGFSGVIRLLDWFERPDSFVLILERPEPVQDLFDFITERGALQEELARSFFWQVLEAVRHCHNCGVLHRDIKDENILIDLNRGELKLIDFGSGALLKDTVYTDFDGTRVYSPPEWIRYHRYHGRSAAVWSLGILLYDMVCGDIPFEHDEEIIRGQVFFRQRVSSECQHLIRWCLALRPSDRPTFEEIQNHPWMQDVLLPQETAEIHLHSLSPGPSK

[3] = Antagonist activity at beta1-adrenoceptor (unknown origin) at 1 uM; set-up: species or system Homo sapiens
[4] = Antioxidant activity assessed as ABTS radical scavenging activity; type: functional
[5] = molecular target: Cholinesterase (Homo sapiens) (UniProt P06276); test: Inhibition of BuChE (unknown origin) by Ellman method; conditions: concentration not given here
Cholinesterase (Homo sapiens), sequence (P06276 whole entry): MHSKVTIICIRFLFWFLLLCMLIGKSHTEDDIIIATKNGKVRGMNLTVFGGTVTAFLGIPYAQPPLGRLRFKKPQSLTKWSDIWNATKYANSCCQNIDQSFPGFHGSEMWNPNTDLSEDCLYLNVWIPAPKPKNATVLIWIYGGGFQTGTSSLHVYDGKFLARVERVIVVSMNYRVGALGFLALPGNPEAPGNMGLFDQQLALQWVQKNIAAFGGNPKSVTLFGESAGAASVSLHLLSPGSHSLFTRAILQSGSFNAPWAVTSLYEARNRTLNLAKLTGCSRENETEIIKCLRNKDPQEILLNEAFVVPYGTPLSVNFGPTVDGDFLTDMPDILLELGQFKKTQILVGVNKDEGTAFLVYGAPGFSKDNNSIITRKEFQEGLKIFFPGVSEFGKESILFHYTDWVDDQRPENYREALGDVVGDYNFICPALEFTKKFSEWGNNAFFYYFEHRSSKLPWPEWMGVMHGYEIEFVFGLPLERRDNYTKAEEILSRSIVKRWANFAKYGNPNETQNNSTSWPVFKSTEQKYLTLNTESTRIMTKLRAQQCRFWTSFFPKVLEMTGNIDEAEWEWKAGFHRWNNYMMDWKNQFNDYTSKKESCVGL

Dual specificity protein kinase CLK1, sequence (P22518 whole entry): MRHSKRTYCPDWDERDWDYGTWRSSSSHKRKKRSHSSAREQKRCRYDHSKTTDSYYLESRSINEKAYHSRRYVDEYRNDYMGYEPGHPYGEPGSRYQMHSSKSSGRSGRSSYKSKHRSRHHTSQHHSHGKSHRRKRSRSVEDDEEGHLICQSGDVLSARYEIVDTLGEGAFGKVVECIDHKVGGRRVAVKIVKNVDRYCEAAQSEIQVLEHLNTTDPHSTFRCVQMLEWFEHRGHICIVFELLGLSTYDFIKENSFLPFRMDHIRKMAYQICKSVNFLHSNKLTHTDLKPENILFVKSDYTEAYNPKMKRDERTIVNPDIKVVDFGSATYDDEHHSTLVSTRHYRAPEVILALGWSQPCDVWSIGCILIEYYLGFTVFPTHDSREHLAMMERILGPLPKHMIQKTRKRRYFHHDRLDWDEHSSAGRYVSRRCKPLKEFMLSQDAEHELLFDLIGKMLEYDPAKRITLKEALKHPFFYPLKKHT

Row | Structure (SMILES) | IC50 [1] [nM] | IC50 [2] [nM] | further results
1 | NN1C(=O)/C(=C2\C(=O)Nc3ccc(Br)cc32)SC1=S | 4670 | 1800 | 
2 | COc1cc2c(cc1OC)CC(=O)N(CCCN(C)C[C@@H](O)COc1ccccc1C)CC2 |  |  | IC50 [3]: 10400 nM
3 | CN1C(=O)/C(=C2/SC(=S)N(N)C2=O)c2cc(Br)ccc21 | > 10000 | 770 | 
4 | CCCCCCCCCCCCCCCCOC(=O)C1=C(C)NC(C)=C(C(=O)OCCCCCCCCCCCCCCCC)C1c1ccccc1[N+](=O)[O-] |  |  | IC50 [4]: 2450 nM
5 | COc1cc(/C=C/C(=O)OCCOCCNC(=O)/C=C/c2ccc(OC(C)=O)c(OC(C)=O)c2)ccc1OC(C)=O |  |  | inhibition [5]: 95%
